# Patent US7491794B2, “Macrocyclic compounds as inhibitors of viral replication” (Intermune, Inc., priority 2003, dated 2009)
# Read-outs that look alike come from different tables or passages of the source.
# Columns and labels:
# NS3-NS4 protease = target: T1, NS3-NS4 protease (Hepatitis C virus genotype 1a, UniProt P27958); assay: NS3-NS4 protease assay / NS3 inhibition assay, Section C; type: biochemical; settings: read-out: NS3-NS4 IC50
# T1 construct: Recombinant E. coli or Baculovirus full-length NS3 was diluted to 3.33 μM with assay buffer; made in house; host or cells: E. coli or baculovirus (BV) system
# Procedure: NS3 complex formation with NS4A-2.
# Recombinant E. coli or Baculovirus full-length NS3 was diluted to 3.33 μM with assay buffer and transfered material to an eppendorf tube and place in water bath in 4° C. refrigerator. The appropriate amount of NS4A-2 to 8.3 mM in assay buffer was added to equal the volume of NS3 in step 2.1.1 (conversion factor −3.8 mg/272 μL assay buffer). The material was transferred to an eppendorf tube and place in water bath in 4° C. refrigerator.
# After equilibration to 4° C., equal volumes of NS3 and NS4A-2 solutions were combined in an eppendorf tube, mix gently with a manual pipettor, and incubate mixture for 15 minutes in the 4° C. water bath. Final concentrations in the mixture are […] NS3, 4.15 mM NS4A-2 (2485-fold molar excess NS4A-2).
# After 15 minutes at 4° C., the NS3/NS4A-2 eppendorf tube was removed and place it in a room temperature water bath for 10 minutes. NS3/NS4A-2 was alliquoted at appropriate volumes and store at −80° C. (E. coli NS3 run at 2 nM in assay, aliquot at 25 μL. BV NS3 run at 3 nM in assay, aliquot at 30 μL).
# Step 2.2.5. Sample compounds were dissolved to 10 mM in DMSO then diluted to 2.5 mM (1:4) in DMSO.
# Step 2.2.6. The E. coli. NS3/NS4A-2 was diluted to 4 nM NS3 (1:417.5 of […] stock−18 μL 1.67 μM stock+7497 μL assay buffer). The BV NS3/NS4A-2 was diluted to 6 nM NS3 (1:278.3 of 1.67 μM stock−24 μL 1.67 μM stock+6655 μL assay buffer).
# Step 2.2.7. Using the manual multichannel pipettor, and being careful not to introduce bubbles into the plate, 50 μL assay buffer were added to wells A01-H01 of a black Costar 96-well polypropylene storage plate.
# Step 2.2.8. Using the manual multichannel pipettor, and being careful not to introduce bubbles into the plate, 50 μL of diluted NS3/NS4A-2 from step 2.2.6 were added to wells A02-H12 of plate in step 2.2.7.
# Step 2.2.9. Using the manual multichannel pipettor, and being careful not to introduce bubbles into the plate, 25 μL of the wells in drug dilution plate in step 2.2.5 were transferred to corresponding wells in assay plate in step 2.2.8. The tips on multichannel pipettor were changed for each row of compounds transferred.
# Step 2.2.10. Using the manual multichannel pipettor, and being careful not to introduce bubbles into the plate, the contents of the wells from the assay plate in step 2.2.9 were mixed by aspirating and dispensing 35 μL of the 75 μL in each well five times. The tips on the multichannel pipettor were changed for each row of wells mixed.
# Step 2.2.11. The plate was covered with a polystyrene plate lid, and the plate from step 2.2.10 containing NS3 protease and sample compounds was pre-incubated 10 minutes at room temperature.
# While the plate from step 2.2.11 was pre-incubating, the RETS1 substrate was diluted in a 15 mL polypropylene centrifuge tube. The RETS1 substrate was diluted to 8 μM (1:80.75 of 646 μM stock−65 μL 646 μM stock+5184 μL assay buffer).
# After the plate in step 2.2.11 was done pre-incubating, and using the manual multichannel, 25 μL of substrate were added to all wells on the plate. The contents of the wells of plate were quickly mixed, as in step 2.2.10, but mixing 65 μL of the 100 μL in the wells.
# The plate was read in kinetic mode on the Molecular Devices SpectraMax Gemini XS plate reader. Reader settings: Read time: 30 minutes, Interval: 36 seconds, Reads: 51, Excitation λ: 335 nm, Emission λ: 495 nm, cutoff: 475 nm, Automix: off, Calibrate: once, PMT: high, Reads/well: 6, Vmax pts: 21 or 28/51 depending on length of linearity of reaction.
# IC50s were determined using a four parameter curve fit equation, and converted to Ki's using the following Km's:
# where Ki=IC50/(1+[S]/Km))
# [1] = system: HCV sub-genomic replicon, GS4.3; assay: Quantitation by ELISA of NPTII in the HCV sub-genomic replicon, GS4.3, Section C; type: cell-based; settings: GS4.3 cells, 72 h incubation, read-out: EC50
# From the text: Quantitation by ELISA of the selectable marker protein, Neomycin phosphotransferase II (NPTII) in the HCV Sub-Genomic Replicon, GS4.3
# The HCV sub-genomic replicon (1377/NS3-3′, accession No. AJ242652), stably maintained in HuH-7 hepatoma cells, was created by Lohmann et al. Science 285: 110-113 (1999). The replicon-containing cell culture, designated GS4.3, was obtained from Dr. Christoph Seeger of the Institute for Cancer Research, Fox Chase Cancer Center, Philadelphia, Pa.
# GS4.3 cells were maintained at 37° C., 5% CO2, in DMEM (Gibco 11965-092) supplemented with L-glutamine 200 mM (100×) (Gibco25030-081), non-essential amino acids (NEAA)(Biowhittaker 13-114E), heat-inactivated (HI) Fetal Bovine Serum(FBS)(Hyclone SH3007.03) and 750 μg/ml geneticin (G418)(Gibco 10131-035). Cells were sub-divided 1:3 or 4 every 2-3 days.
# 24 h prior to the assay, GS4.3 cells were collected, counted, and plated in 96-well plates (Costar 3585) at 7500 cells/well in 100 μl standard maintenance medium (above) and incubated in the conditions above. To initiate the assay, culture medium was removed, cells were washed once with PBS (Gibco 10010-023) and 90 μl Assay Medium (DMEM, L-glutamine, NEAA, 10% HI FBS, no G418) was added. Inhibitors were made as a 10× stock in Assay Medium, (3-fold dilutions from 10 μM to […] final concentration, final DMSO concentration 1%), 10 μl were added to duplicate wells, plates were rocked to mix, and incubated as above for 72 h.
# An NPTII Elisa kit was obtained from AGDIA, Inc. (Compound direct ELISA test system for Neomycin Phosphotransferase II, PSP 73000/4800). Manufacturer's instructions were followed, with some modifications. 10×PEB-1 lysis buffer was made up to include 500 μM PMSF (Sigma P7626, 50 mM stock in isopropanol). After 72 h incubation, cells were washed once with PBS and 150 μl PEB-1 with PMSF was added per well. Plates were agitated vigorously for 15 minutes, room temperature, then frozen at −70° C. Plates were thawed, lysates were mixed thoroughly, and 100 μl were applied to an NPTII Elisa plate. A standard curve was made. Lysate from DMSO-treated control cells was pooled, serially diluted with PEB-1 with PMSF, and applied to duplicate wells of the ELISA plate, in a range of initial lysate amount of 150u1-2.5 ul. In addition, 100 μl buffer alone was applied in duplicate as a blank. Plates were sealed and gently agitated at room temperature for 2 h. Following capture incubation, the plates were washed 5×300 μl with PBS-T (0.5% Tween-20, PBS-T was supplied in the ELISA kit). For detection, a 1× dilution of enzyme conjugate diluent MRS-2 (5×) was made in PBS-T, into which 1:100 dilutions of enzyme conjugates A and B were added, as per instructions. Plates were resealed, and incubated with agitation, covered, room temperature, for 2 h. The washing was then repeated and 100 μl of room temperature TMB substrate was added. After approximately 30 minutes incubation (room temperature, agitation, covered), the reaction was stopped with 50 μl 3M sulfuric acid. Plates were read at 450 nm on a Molecular Devices Versamax plate reader.
# Inhibitor effect was expressed as a percentage of DMSO-treated control signal, and inhibition curves were calculated using a 4-parameter equation: y=A+((B−A)/(1+((C/x)^D))), where C is half-maximal activity or EC50.
# T1 sequence (P27958 1027-1657): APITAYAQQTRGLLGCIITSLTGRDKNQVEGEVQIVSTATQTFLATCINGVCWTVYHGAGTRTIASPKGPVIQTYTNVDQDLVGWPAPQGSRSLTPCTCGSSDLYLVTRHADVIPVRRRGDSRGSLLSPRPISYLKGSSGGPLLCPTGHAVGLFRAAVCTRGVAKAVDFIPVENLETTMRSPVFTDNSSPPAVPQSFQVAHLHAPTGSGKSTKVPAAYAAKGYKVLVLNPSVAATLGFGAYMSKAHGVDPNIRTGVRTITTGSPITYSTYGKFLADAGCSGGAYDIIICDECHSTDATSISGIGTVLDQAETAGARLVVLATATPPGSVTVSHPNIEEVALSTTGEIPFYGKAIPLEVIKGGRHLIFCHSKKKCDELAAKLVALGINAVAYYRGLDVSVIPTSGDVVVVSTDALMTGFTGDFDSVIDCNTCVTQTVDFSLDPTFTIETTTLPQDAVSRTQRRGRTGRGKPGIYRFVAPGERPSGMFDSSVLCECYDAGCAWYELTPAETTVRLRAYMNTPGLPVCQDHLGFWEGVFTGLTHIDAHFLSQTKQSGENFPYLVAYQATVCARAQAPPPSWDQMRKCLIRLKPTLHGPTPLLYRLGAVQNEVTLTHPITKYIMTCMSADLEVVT
Structure (SMILES),IC50 (NS3-NS4 protease),EC50 ([1]; Hepatitis C virus),EC50 [1]
CC(C)(C)OC(=O)N[C@H]1CCCCC/C=C\[C@@H]2C[C@@]2(C(=O)NS(=O)(=O)NC2CC2)NC(=O)C2C[C@@H](OC(=O)N3Cc4cccc(F)c4C3)CN2C1=O (stereo partly drawn) [Compound 121],< 100 nM,< 100 nM,–
"CN1CCN(S(=O)(=O)NC(=O)[C@@]23C[C@H]2/C=C\CCCCC[C@H](NC(=O)OC(C)(C)C)C(=O)N2C[C@H](OC(=O)N4Cc5ccccc5C4)C[C@H]2C(=O)N3)CC1 [Compound 118, (1S,4R,6S,14S,18R)-1,3-Dihydro-isoindole-2-carboxylic acid 14-tert-butoxycarbonylamino-4-(4-methylpiperazine-1-sulfonyl-aminocarbonyl)-2,15-dioxo-3,16-diaza-tricyclo[14.3.0.0^4,6]nonadec-7-en-18-yl ester]",< 100 nM,< 100 nM,–
"CC(C)(C)OC(=O)N[C@H]1CCCCC/C=C\[C@@H]2C[C@@]2(C(=O)NS(=O)(=O)Nc2ccc(C(F)(F)F)cc2)NC(=O)[C@@H]2C[C@@H](OC(=O)N3Cc4ccccc4C3)CN2C1=O [Compound 132, (1S,4R,6S,14S,18R)-1,3-Dihydro-isoindole-2-carboxylic acid 14-tert-butoxycarbonylamino-4-(4-trifluoromethylphenylaminosulfonyl-aminocarbonyl)-2,15-dioxo-3,16-diaza-tricyclo[14.3.0.0^4,6]nonadec-7-en-18-yl ester]",< 100 nM,< 100 nM,–
"CC(C)(C)OC(=O)N[C@H]1CCCCC/C=C\[C@@H]2C[C@@]2(C(=O)NS(=O)(=O)N2CCOCC2)NC(=O)[C@@H]2C[C@@H](OC(=O)N3Cc4ccc(Cl)cc4C3)CN2C1=O [Compound 116, (1S,4R,6S,14S,18R)-5-Chloro-1,3-Dihydro-isoindole-2-carboxylic acid 14-tert-butoxycarbonylamino-4-(morpholino-sulfonyl-aminocarbonyl)-2,15-dioxo-3,16-diaza-tricyclo[14.3.0.0^4,6]nonadec-7-en-18-yl ester]",< 100 nM,< 1000 nM,–
"CN(C)S(=O)(=O)NC(=O)[C@@]12C[C@H]1C=CCCCCC[C@H](NC(=O)OC(C)(C)C)C(=O)N1C[C@H](OC(=O)N3Cc4ccccc4C3)C[C@H]1C(=O)N2 [Compound 101, (1S,4R,6S,14S,18R)-1,3-Dihydro-isoindole-2-carboxylic acid 14-tert-butoxycarbonylamino-4-(N,N-dimethylsulfonyl-aminocarbonyl)-2,15-dioxo-3,16-diaza-tricyclo[14.3.0.0^4,6]nonadec-7-en-18-yl ester]",< 100 nM,–,< 100 nM
"CC(C)(C)OC(=O)N[C@H]1CCCCC/C=C\[C@@H]2C[C@@]2(C(=O)NS(=O)(=O)N2CCCC2)NC(=O)[C@@H]2C[C@@H](OC(=O)N3Cc4ccccc4C3)CN2C1=O [Compound 103, (1S,4R,6S,14S,18R)-1,3-Dihydro-isoindole-2-carboxylic acid 14-tert-butoxycarbonylamino-4-(pyrrolidinosulfonyl-aminocarbonyl)-2,15-dioxo-3,16-diaza-tricyclo[14.3.0.0^4,6]nonadec-7-en-18-yl ester]",< 100 nM,< 100 nM,–
"CC(C)(C)OC(=O)N[C@H]1CCCCC/C=C\[C@@H]2C[C@@]2(C(=O)NS(=O)(=O)N2CCOCC2)NC(=O)[C@@H]2C[C@@H](OC(=O)N3CCc4ccccc4C3CN3CCCCC3)CN2C1=O (stereo partly drawn) [Compound 110, (1S,4R,6S,14S,18R)-1-Piperidin-1-ylmethyl-3,4-dihydro-1H-isoquinoline-2-carboxylic acid 14-tert-butoxycarbonylamino-2,15-dioxo-4-(morpholino-sulfonylaminocarbonyl)-3,16-diaza-tricyclo[14.3.0.0^4,6]nonadec-7-en-18-yl ester]",< 1000 nM,–,–
"CC(C)(C)OC(=O)N[C@H]1CCCCC/C=C\[C@@H]2C[C@@]2(C(=O)NS(=O)(=O)N2CCNCC2)NC(=O)[C@@H]2C[C@@H](OC(=O)N3Cc4ccccc4C3)CN2C1=O [Compound 120, (1S,4R,6S,14S,18R)-1,3-Dihydro-isoindole-2-carboxylic acid 14-tert-butoxycarbonylamino-4-(piperazine-1-sulfonyl-aminocarbonyl)-2,15-dioxo-3,16-diaza-tricyclo[14.3.0.0^4,6]nonadec-7-en-18-yl ester]",< 100 nM,–,–
"CC(C)(C)OC(=O)N[C@H]1CCCCC/C=C\[C@@H]2C[C@@]2(C(=O)NS(=O)(=O)Nc2nccs2)NC(=O)[C@@H]2C[C@@H](OC(=O)N3Cc4ccccc4C3)CN2C1=O [Compound 105, (1S,4R,6S,14S,18R)-1,3-Dihydro-isoindole-2-carboxylic acid 14-tert-butoxycarbonylamino-4-(thiazol-2-ylaminosulfonylaminocarbonyl)-2,15-dioxo-3,16-diaza-tricyclo[14.3.0.0^4,6]nonadec-7-en-18-yl ester]",< 100 nM,–,–
